Data on 1 compound can be found in paper PMC5365648, “Pharmacokinetics of the Novel Echinocandin CD101 in Multiple Animal Species” (Antimicrobial Agents and Chemotherapy, 2017).

Series [1] is described as follows: Mouse pharmacokinetics, i.v. bolus. The settings on record: in vivo, iv, male ICR (CD-1) mice, single 1 mg/kg slow i.v. bolus, plasma, LC-MS/MS, noncompartmental from mean profile, n = 3/time point. How it is done: A single 1-mg/kg dose of CD101 or anidulafungin was administered by slow i.v. bolus (∼2 min) to male ICR (CD-1) mice (n = 3/group/time point). Blood samples (via cardiac puncture) were collected for plasma processing predose and at 0.083 (5 min), 0.5, 1, 4, 8, 24, 48, and 72 h postdose. PK profiles were generated based on mean results from the three animals sampled at each time point. In another study, a single 1-, 4-, or 16-mg/kg dose of CD101 was administered by i.p. injection to female ICR (CD-1) mice (n = 3/time point/dose), and blood samples (via cardiac puncture) were drawn for plasma processing at 1, 3, 6, 12, 24, 48, 72, and 96 h postdose.
(§1) For each of the pharmacokinetic studies, whole-blood samples (K3EDTA as anticoagulant) were collected and centrifuged within 30 min of collection. The resulting plasma was harvested and stored at −20°C until analysis. Tissue samples were homogenized by a bead-based homogenizer following the addition of deionized water to excised tissue in a 2:1 (vol/wt) ratio and stored at −20°C until analysis. Prior to analysis, plasma or homogenized tissue samples were quenched with acetonitrile (3:1, acetonitrile-plasma or tissue ratio) containing an appropriate internal standard (isotopically labeled d9-CD101 [mouse and rat] or a structural analog [dog, monkey, and chimpanzee]). Plasma and tissue homogenate concentrations (quantified against calibration standards processed the same way) were determined by reverse-phase, gradient liquid chromatography with tandem mass spectrometric detection (LC-MS/MS) using an AB-SCIEX API 3200Q/4000 mass spectrometry system. Calibration standard ranges were the following: 0.400 (lower limit of quantitation, [LLOQ]) to 200 μg/ml (CD101, mouse), 0.040 (LLOQ) to 10 μg/ml (anidulafungin, mouse), 0.002 (LLOQ) to 10 μg/ml (CD101, rat), 0.005 (LLOQ) to 10 μg/ml (anidulafungin, rat), 0.050 (LLOQ) to 10 μg/ml (CD101, dog), 0.020 (LLOQ) to 10 μg/ml (anidulafungin, dog), 0.010 (LLOQ) to 10 μg/ml (CD101, monkey), 0.001 (LLOQ) to 10 μg/ml (anidulafungin, monkey), 0.015 (LLOQ) to 10 μg/ml (CD101, chimpanzee), and 0.015 (LLOQ) to 10 μg/ml (anidulafungin, chimpanzee). When necessary, dilutions with blank matrix were made for samples that quantified above the upper limit of quantitation. The methods used in the analysis were qualified as fit for purpose: calibration standards were matrix matched with the exception that human plasma calibration standards were used to analyze chimpanzee plasma samples due to the rarity of blank chimpanzee plasma, and, for each analytical batch, triplicate calibration standards were included at the beginning, approximately in the middle, and at the end of the batch. Following analysis, quantitation was carried out by a calibration curve comprising the analyte/internal standard area ratio versus concentration. Analytical batch acceptance followed the general guidance that triplicate standards/quality controls be within ±20% for accuracy (percentage of nominal concentration) and ≤20% for precision (percent coefficient of variation).
Pharmacokinetic parameters were calculated by noncompartmental analysis using Phoenix WinNonlin (version 6.3; Pharsight, Mountain View, CA) from either individual or mean (mouse) concentration-time profiles. An unpaired t test was used to compare mean exposures from male and female rats.

Series [2] in a line: Excretion in bile duct-cannulated rats. The series is classed as in vivo, Sprague-Dawley rats. The settings on record: for dose excreted at 120 h: bile duct-cannulated male Sprague-Dawley rats, single 5 mg/kg i.v. bolus, over 5 days, n = 3. How it is done: In one of three rat studies reported here, a single 5-, 15-, or 45-mg/kg dose of CD101 was administered by slow i.v. bolus (∼3 min) to Sprague-Dawley rats (n = 3 to 5/dose). Blood samples (via jugular vein catheter [JVC]) were drawn for plasma processing at 0.083, 0.25, 0.5, 1, 2, 4, 8, 24, 48, 120, 168, and 240 h after dosing. In the second rat study, conducted to assess tissue distribution, a single 5-mg/kg dose of CD101 was administered by slow i.v. bolus (∼3 min) to male Sprague-Dawley rats (n = 3 animals/time point). Blood samples (via cardiac puncture) were collected for plasma processing predose and at 0.083, 0.5, 1, 2, 4, 8, 24, 48, 72, 96, and 120 h postdose. In parallel with blood collection, animals were euthanized, and tissues (liver, lungs, kidneys, heart, spleen, and brain) were excised and frozen prior to analysis. In the third rat study, conducted to assess excretion, a single 5-mg/kg dose of CD101 was administered by slow i.v. bolus (∼3 min) to bile duct-cannulated male Sprague-Dawley rats (n = 3). Bile samples were collected from each animal into prelabeled bile collection tubes predose and at 0 to 8, 8 to 24, 24 to 48, 48 to 72, 72 to 96, and 96 to 120 h postdose; urine samples were collected from each animal at the same time points pre- and postdose.
as §1, with “Analytical batch acceptance followed the general guidance that triplicate standards/quality controls be within ±20% for accuracy (percentage of nominal concentration) and ≤20% for precision (percent coefficient of variation).” left out

Where two headings read alike, the source gives them in different places. Starred links: 1 amine or outer side, 2 acyl side, 3 side chain; linkers in the order of their positions; H or OH if unused. Positions of bridges follow the written chain, without caps; N, C: chain ends. Non-standard residues stand in square brackets, D forms with d. Residues, ends and D or L forms follow the SMILES beside them. *: point of attachment. Orn(4R-OH,5R-OCH2CH2NMe3+) = C[N+](C)(C)CCO[C@@H](N[*:3])[C@H](O)C[C@H](N[*:1])C(=O)[*:2]; pTerphenylCO(4''-OnC5H11) = CCCCCOc1ccc(-c2ccc(-c3ccc(C(=O)*)cc3)cc2)cc1; hTyr(3S-OH,4S-OH) = N[C@H](C(=O)O)[C@H](O)[C@@H](O)c1ccc(O)cc1; Pro(3S-OH,4S-Me) = C[C@H]1CN[C@H](C(=O)O)[C@H]1O; Hyp = O=C(O)[C@@H]1C[C@@H](O)CN1

In general, AUC(0-inf) refers to the area under the concentration-time curve extrapolated to infinity. Broadly, the AUC(0-t) is the area under the concentration-time curve up to a stated or last time point. The Cmax is the peak of the concentration-time curve. What is called Tmax is the time from dosing to the highest level. As a reminder, the half-life is how long it takes for the measured level to halve. A word on the clearance: it is a measure of how efficiently the substance is removed, as volume per time. As to `CCCCCOc1ccc(-c2ccc(-c3ccc(C(=O)N[C@H]4C[C@@H](O)[C@@H](OCC[N+](C)(C)C)NC(=O)[C@@H]5[C@@H](O)[C@@H](C)CN5C(=O)[C@H]([C@@H](C)O)NC(=O)[C@H]([C@H](O)[C@@H](O)c5ccc(O)cc5)NC(=O)[C@@H]5C[C@@H](O)CN5C(=O)[C@H]([C@@H](C)O)NC4=O)cc3)cc2)cc1` [CD101] ({pTerphenylCO(4''-OnC5H11)}-[Orn(4R-OH,5R-OCH2CH2NMe3+)]T[Hyp][hTyr(3S-OH,4S-OH)]T[Pro(3S-OH,4S-Me)]; lactam 1-C), in series [1], the area under the curve AUC(0-inf) was 166 µg·h/mL, the AUC(0-t) was determined as 87.3 µg·h/mL, the concentration peaked (Cmax) at 9290 ng/mL and the time to peak (Tmax) came out at 4.98 min. In addition, the half-life in series [1] was 25.2 h. Moreover, in series [1] (read-out: CL (clearance)), the clearance turned out to be 0.102 mL/min/kg. For the same compound, the Vd in series [1] (read-out: Vss (volume of distribution at steady state)) turned out to be 0.206 L/kg. In addition, in series [2] (male, Sprague-Dawley, rat, bile plus faeces, iv, bile duct-cannulated rats, 5 mg/kg i.v., bile plus feces), the dose excreted is around 50%. The “biotransformation in plasma, bile samples, and excreta” value in series [2] (nonradiolabeled material, rats, data not shown) is reported as “no biotransformation was observed”. Besides, in series [2] (rat, faeces, iv, intact drug, read-out: mean cumulative amount excreted into feces, % of total dose), the dose excreted at 120 h is 27.7%. Moreover, the dose excreted at 120 h in series [2] (rat, iv, intact drug, read-out: mean cumulative amount excreted into bile, % of total dose) is 22.6%. Besides, in series [2] (rat, urine, iv, read-out: total dose recovered in urine), the dose excreted at 120 h was 1.4%.
